Ends that are not written are not given here. Some results are limits rather than exact numbers.

One data set relates to A549 epithelial cells. Description: LDH release. It counts as cell-based, human. Conditions: for effect of receptor inhibitor on LL-37-induced LDH release: 1 h pretreatment (pertussis toxin 100 ng/ml; PD1683 2 μM; AG1478 1 μM), then 50 μg/ml LL-37 for 24 h, DMEM without serum. In general terms: LDH in the medium is a marker of cell lysis.
In data set [1] the test system is airway epithelial or monocyte-like cell line. Conditions: presence of FBS; cited from earlier work.

For `COc1cc2ncnc(Nc3cccc(Cl)c3)c2cc1OC` [AG1478], the “effect of receptor inhibitor on LL-37-induced LDH release” value (“effect of receptor inhibitor” below) in the data set with A549 epithelial cells is reported as “No decrease in LDH release”.
On to `C=CC(=O)Nc1ccc2ncnc(Nc3cccc(Br)c3)c2c1` [PD1683], for which the “effect of receptor inhibitor” value with A549 epithelial cells is reported as “No decrease in LDH release”.
Consider CRAMP, for which the “LDH release effects at >100 μg/ml in the presence of human serum” value in the data set with A549 epithelial cells (10% human serum, data not shown) is given as “similarly suppressed”. The “cell death compared with LL-37” value in the data set on A549 epithelial cells (A549 cells) was “induced significantly less cell death than LL-37”. Further, in the data set on A549 epithelial cells (data not shown), the “concentrations at which no statistically significant LDH release was observed” value was below 100 µg/mL.
For the molecule “indolicidin: cathelicidin peptide (ILPWKWPWWPWRR; ends and bridges not checked; UniProt P33046 131-143, looked up)”, the “induction of cell death” value in data set [1] is “do not induce cell death”.
With pertussis toxin, the “effect of receptor inhibitor” value with A549 epithelial cells was “No decrease in LDH release”.

Values taken from PMC2948534 (American journal of respiratory cell and molecular biology, 2005).
